According to ChEMBL document CHEMBL3217539, “Design, synthesis and biological evaluation of new molecules inhibiting epidermal growth factor receptor threonine790 methionine790 mutant” (Medchemcomm, 2012):
Calls of active or inactive are those of the source. The rule behind the calls is not given here.

Legend:
[1] = target: Epidermal growth factor receptor (Homo sapiens, UniProt P00533); assay: Inhibition of wild type EGFR kinase (unknown origin) after 1.5 hrs by FRET-based Z'-Lyte assay
[2] = target: Epidermal growth factor receptor (Homo sapiens, UniProt P00533, T790M); assay: Inhibition of EGFR kinase T790M mutant (unknown origin) after 1.5 hrs by FRET-based Z'-Lyte assay; type: protein assay
[3] = target: Epidermal growth factor receptor (Homo sapiens, UniProt P00533, L858R); assay: Inhibition of EGFR kinase L858R mutant (unknown origin) after 1.5 hrs by FRET-based Z'-Lyte assay; type: protein assay
[4] = target: Epidermal growth factor receptor (Homo sapiens, UniProt P00533, L861Q); assay: Inhibition of EGFR kinase L861Q mutant (unknown origin) after 1.5 hrs by FRET-based Z'-Lyte assay; type: protein assay
[5] = target: Epidermal growth factor receptor (Homo sapiens, UniProt P00533, L858R/T790M); assay: Inhibition of EGFR kinase L858R/T790M double mutant (unknown origin) after 1.5 hrs by FRET-based Z'-Lyte assay; type: protein assay
NCI-H1975 = assay: cells; type: functional, cell-based; details: Homo sapiens, NCI-H1975, 72 h
[6] = Cytotoxicity against human HCC827 cells expressing EGFR kinase E746 to A750 deletion mutant after 72 hrs by MTS assay; type: functional, cell-based; details: HCC827, 72 h
[7] = Cytotoxicity against human HL7702 cells expressing wild type EGFR after 72 hrs by MTS assay; type: ADME, cell-based; details: L02, 72 h
[8] = system: Epidermal growth factor receptor (Homo sapiens), P00533 [L858R,T790M]; assay: Inhibition of EGFR kinase L858R/T790M double mutant phosphorylation in human H1975 cells after 24 hrs by Western blotting analysis; type: cell-based
[9] = system: Epidermal growth factor receptor (Homo sapiens), P00533 [L858R,T790M]; assay: Inhibition of EGFR kinase L858R/T790M double mutant phosphorylation in human H1975 cells at >= 50 nM after 24 hrs by Western blotting analysis; type: cell-based
[10] = Selectivity ratio of IC50 for human HL7702 cells expressing wild type EGFR to IC50 for human H1975 cells expressing EGFR kinase L858R/T790M double mutant; type: ADME, cell-based; details: read-out: Ratio IC50
[11] = Selectivity ratio of IC50 for human HL7702 cells expressing wild type EGFR to IC50 for human H1975 cells expressing EGFR kinase […]; type: ADME, cell-based; details: read-out: Ratio IC50

Epidermal growth factor receptor (Homo sapiens), P00533 [L858R,T790M], sequence (P00533 whole entry T790M/L858R, looked up): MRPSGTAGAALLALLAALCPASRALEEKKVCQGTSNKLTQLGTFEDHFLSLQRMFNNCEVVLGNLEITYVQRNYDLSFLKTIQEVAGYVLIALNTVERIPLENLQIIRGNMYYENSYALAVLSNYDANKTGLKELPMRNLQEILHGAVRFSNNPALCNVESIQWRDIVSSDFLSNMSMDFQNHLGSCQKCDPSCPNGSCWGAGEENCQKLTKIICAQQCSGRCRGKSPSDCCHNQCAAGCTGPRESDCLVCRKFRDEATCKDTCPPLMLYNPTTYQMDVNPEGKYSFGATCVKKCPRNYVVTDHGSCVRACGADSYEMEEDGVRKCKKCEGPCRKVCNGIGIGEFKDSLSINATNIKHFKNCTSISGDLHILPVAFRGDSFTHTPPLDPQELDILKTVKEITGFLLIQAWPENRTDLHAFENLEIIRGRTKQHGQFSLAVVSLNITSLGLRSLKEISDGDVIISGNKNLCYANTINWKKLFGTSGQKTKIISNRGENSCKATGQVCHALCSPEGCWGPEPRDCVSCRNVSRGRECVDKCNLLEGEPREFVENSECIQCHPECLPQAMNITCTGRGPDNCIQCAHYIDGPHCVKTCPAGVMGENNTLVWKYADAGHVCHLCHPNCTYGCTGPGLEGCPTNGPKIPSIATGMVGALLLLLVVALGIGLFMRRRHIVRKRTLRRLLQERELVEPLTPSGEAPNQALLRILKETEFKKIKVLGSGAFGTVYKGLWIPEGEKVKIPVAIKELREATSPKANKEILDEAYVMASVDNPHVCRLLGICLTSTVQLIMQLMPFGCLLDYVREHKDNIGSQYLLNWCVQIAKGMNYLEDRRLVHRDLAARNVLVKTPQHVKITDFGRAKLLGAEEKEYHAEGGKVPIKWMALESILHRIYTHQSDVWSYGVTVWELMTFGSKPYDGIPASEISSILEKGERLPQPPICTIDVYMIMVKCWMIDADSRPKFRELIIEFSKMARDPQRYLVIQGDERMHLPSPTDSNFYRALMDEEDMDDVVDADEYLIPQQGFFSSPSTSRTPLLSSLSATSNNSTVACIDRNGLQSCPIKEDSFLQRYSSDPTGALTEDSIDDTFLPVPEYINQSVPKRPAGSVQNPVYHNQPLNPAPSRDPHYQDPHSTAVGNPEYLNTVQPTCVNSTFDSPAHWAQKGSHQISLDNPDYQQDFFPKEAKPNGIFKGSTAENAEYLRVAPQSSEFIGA
Epidermal growth factor receptor (Homo sapiens, UniProt P00533, L861Q), sequence (P00533 25-1210 L861Q limits assumed): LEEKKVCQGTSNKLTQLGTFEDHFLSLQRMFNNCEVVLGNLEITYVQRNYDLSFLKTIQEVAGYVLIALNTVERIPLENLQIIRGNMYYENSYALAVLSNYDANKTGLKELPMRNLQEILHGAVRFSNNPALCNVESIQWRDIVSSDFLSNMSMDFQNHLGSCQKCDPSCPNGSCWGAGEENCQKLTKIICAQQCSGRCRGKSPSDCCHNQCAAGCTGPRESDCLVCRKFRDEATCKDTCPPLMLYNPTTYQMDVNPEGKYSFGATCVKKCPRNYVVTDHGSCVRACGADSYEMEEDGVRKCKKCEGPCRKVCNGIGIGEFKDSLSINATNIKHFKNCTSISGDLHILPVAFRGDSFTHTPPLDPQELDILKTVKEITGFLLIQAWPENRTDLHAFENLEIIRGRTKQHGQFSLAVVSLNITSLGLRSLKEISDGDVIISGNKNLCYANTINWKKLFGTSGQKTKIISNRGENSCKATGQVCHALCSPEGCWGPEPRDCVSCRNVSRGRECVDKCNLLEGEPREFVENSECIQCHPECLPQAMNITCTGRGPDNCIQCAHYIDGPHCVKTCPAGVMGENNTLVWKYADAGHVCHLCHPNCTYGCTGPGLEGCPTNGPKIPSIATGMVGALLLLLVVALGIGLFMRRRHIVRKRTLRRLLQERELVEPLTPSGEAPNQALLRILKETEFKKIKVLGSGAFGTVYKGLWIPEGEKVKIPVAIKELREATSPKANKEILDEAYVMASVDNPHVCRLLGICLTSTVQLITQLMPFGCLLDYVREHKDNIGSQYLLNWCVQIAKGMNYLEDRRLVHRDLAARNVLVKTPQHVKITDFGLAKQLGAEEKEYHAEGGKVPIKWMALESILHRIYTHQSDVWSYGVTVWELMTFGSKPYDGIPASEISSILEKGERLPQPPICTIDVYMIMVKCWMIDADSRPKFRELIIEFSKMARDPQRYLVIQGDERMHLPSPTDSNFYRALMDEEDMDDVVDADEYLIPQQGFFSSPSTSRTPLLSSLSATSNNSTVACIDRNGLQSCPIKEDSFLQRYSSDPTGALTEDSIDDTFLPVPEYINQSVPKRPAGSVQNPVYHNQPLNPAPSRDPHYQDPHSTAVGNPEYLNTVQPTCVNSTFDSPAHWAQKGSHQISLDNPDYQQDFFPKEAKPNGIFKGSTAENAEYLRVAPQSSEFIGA
Epidermal growth factor receptor (Homo sapiens, UniProt P00533, L858R), sequence (P00533 25-1210 L858R limits assumed): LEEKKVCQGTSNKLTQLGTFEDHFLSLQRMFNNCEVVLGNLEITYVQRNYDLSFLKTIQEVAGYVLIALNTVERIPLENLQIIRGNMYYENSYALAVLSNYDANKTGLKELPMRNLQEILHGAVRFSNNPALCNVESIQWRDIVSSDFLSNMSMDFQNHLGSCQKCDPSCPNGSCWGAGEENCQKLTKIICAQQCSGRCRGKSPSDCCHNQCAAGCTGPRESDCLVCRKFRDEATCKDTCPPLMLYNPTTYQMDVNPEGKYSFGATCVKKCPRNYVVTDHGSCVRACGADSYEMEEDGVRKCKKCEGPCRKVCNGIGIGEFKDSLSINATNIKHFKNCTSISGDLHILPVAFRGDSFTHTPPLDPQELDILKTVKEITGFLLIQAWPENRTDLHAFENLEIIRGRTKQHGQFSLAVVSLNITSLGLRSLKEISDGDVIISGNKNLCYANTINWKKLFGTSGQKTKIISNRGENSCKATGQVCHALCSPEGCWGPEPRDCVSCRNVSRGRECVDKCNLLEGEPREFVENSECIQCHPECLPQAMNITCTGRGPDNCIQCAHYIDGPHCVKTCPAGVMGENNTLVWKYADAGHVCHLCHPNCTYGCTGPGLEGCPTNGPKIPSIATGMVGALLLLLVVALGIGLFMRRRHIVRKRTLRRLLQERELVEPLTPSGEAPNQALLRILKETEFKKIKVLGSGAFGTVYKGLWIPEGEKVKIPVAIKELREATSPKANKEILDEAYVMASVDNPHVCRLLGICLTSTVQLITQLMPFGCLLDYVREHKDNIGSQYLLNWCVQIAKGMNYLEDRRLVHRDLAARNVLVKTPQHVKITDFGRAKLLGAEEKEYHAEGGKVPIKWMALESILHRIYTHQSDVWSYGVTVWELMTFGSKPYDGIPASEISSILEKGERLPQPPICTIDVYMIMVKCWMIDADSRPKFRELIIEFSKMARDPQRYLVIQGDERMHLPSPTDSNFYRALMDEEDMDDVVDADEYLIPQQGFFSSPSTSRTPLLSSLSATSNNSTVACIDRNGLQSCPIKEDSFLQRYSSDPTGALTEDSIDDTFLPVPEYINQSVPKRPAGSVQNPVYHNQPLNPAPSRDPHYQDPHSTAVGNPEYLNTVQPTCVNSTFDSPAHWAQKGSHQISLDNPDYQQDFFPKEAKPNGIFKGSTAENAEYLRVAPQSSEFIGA
Epidermal growth factor receptor (Homo sapiens, UniProt P00533, L858R/T790M), sequence (P00533 25-1210 T790M/L858R limits assumed): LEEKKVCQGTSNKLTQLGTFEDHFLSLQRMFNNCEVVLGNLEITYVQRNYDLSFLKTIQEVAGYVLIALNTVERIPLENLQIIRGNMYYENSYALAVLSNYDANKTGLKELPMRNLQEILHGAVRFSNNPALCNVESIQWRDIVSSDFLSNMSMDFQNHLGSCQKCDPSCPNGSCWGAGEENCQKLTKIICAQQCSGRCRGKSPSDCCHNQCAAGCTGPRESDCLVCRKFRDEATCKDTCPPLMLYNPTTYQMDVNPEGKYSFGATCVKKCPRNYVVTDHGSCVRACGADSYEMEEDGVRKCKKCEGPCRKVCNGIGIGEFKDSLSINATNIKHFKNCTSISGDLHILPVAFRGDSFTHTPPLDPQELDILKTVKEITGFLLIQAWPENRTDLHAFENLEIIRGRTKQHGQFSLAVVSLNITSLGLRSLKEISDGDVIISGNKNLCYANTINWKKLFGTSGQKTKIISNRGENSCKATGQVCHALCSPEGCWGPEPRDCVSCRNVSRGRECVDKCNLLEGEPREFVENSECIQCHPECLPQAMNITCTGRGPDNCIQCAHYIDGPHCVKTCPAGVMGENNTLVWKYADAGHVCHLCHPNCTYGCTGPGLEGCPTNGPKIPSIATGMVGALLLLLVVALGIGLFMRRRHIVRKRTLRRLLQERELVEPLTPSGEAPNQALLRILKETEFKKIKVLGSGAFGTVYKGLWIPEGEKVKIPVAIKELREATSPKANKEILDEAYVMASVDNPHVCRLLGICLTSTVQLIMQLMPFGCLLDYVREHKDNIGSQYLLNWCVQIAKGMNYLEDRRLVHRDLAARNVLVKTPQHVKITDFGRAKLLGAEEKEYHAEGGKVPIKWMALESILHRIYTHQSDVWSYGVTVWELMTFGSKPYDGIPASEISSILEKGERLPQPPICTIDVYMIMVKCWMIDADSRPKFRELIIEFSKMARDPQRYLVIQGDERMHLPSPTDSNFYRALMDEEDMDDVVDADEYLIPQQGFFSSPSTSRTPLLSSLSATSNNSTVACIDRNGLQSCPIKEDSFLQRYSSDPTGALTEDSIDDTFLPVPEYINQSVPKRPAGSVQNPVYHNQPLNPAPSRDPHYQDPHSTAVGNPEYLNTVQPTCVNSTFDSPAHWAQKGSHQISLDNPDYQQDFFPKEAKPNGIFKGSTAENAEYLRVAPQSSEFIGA

| IC50 [1] | IC50 [2] | IC50 [3] | IC50 [4] | IC50 [5] | IC50 (NCI-H1975) | inhibition [8] | inhibition [9] | SMILES | IC50 [6] | IC50 [7] | selectivity ratio [10] | selectivity ratio [11] |
| --- | --- | --- | --- | --- | --- | --- | --- | --- | --- | --- | --- | --- |
| 10.2 nM | 86.8 nM | 13.2 nM | 7.25 nM | 87.5 nM | 1110 nM | – | – | C=CC(=O)Nc1cccc(N2C(=O)C(C(C)CC)N(C)C(=O)c3cnc(Nc4ccc(N5CCN(C)CC5)cc4OC)nc32)c1 (stereo not given) | 600 nM | 15000 nM | – | – |
| 4.68 nM | 16.5 nM | 8.33 nM | 5.3 nM | 8.95 nM | 89 nM | Dose-dependent effect | Active | C=CC(=O)Nc1cccc(N2C(=O)C(Cc3ccccc3)N(C)C(=O)c3cnc(Nc4ccc(N5CCN(C)CC5)cc4OC)nc32)c1 (stereo not given) | 24 nM | 25600 nM | 200 | 200 |
| – | – | – | – | – | 87 nM | – | – | C=CC(=O)Nc1cccc(Oc2nc(Nc3ccc(N4CCN(C)CC4)cc3OC)ncc2Cl)c1 | 24 nM | 9150 nM | – | – |
| – | – | – | – | – | 470 nM | – | – | C=CC(=O)Nc1cccc(N2C(=O)C(Cc3ccc(Cl)cc3)N(C)C(=O)c3cnc(Nc4ccc(N5CCN(C)CC5)cc4OC)nc32)c1 (stereo not given) | 300 nM | 8730 nM | – | – |
| 24.8 nM | 44 nM | 56.5 nM | 24.1 nM | 24.8 nM | 650 nM | – | – | C=CC(=O)Nc1cccc(N2C(=O)C(C(C)C)N(C)C(=O)c3cnc(Nc4ccc(N5CCN(C)CC5)cc4OC)nc32)c1 (stereo not given) | 69 nM | 28200 nM | – | – |
| 5.78 nM | 17.9 nM | 24.5 nM | 7.57 nM | 14.1 nM | 69 nM | Dose-dependent effect | Active | C=CC(=O)Nc1cccc(N2C(=O)C(Cc3ccc(F)cc3)N(C)C(=O)c3cnc(Nc4ccc(N5CCN(C)CC5)cc4OC)nc32)c1 (stereo not given) | 71 nM | 13700 nM | 200 | 200 |
| 33.9 nM | 88.3 nM | 50 nM | 97.1 nM | 53.9 nM | 820 nM | – | – | C=CC(=O)Nc1cccc(N2C(=O)C(Cc3ccc(OC)cc3)N(C)C(=O)c3cnc(Nc4ccc(N5CCN(C)CC5)cc4OC)nc32)c1 (stereo not given) | 280 nM | 16200 nM | – | – |
| 22.1 nM | 122 nM | 41.6 nM | 6.02 nM | 50.9 nM | 920 nM | – | – | C=CC(=O)Nc1cccc(N2C(=O)C(C)N(C)C(=O)c3cnc(Nc4ccc(N5CCN(C)CC5)cc4OC)nc32)c1 (stereo not given) | 130 nM | 49200 nM | – | – |
| 6.99 nM | 221 nM | 30.7 nM | 6.86 nM | 194 nM | 9190 nM | – | – | C=CC(=O)Nc1cccc(N2C(=O)CN(c3ccccc3)C(=O)c3cnc(Nc4ccc(N5CCN(C)CC5)cc4OC)nc32)c1 | 140 nM | 1710 nM | – | – |
| 9.14 nM | 110 nM | 15.1 nM | 22.3 nM | 52.6 nM | 11700 nM | – | – | C=CC(=O)Nc1cccc(N2C(=O)CN(C)C(=O)c3cnc(Nc4ccc(N5CCN(C)CC5)cc4OC)nc32)c1 | 1680 nM | 44500 nM | – | – |
| 2.45 nM | 115 nM | 4.3 nM | 2.74 nM | 40.7 nM | 990 nM | – | – | C=CC(=O)Nc1cccc(N2C(=O)C3CCCCN3C(=O)c3cnc(Nc4ccc(N5CCN(C)CC5)cc4OC)nc32)c1 (stereo not given) | 68 nM | 23000 nM | – | – |
| > 1000 nM | > 1000 nM | > 1000 nM | > 1000 nM | > 1000 nM | 31400 nM | – | – | C=CC(=O)Nc1cccc(N2C(=O)C3CCCN3C(=O)c3cnc(Nc4ccc(N5CCN(C)CC5)cc4OC)nc32)c1 (stereo not given) | 6900 nM | 16100 nM | – | – |
| 77.2 nM | 778 nM | 174 nM | 77.1 nM | > 1000 nM | 5900 nM | – | – | C=CC(=O)Nc1cccc(N2C(=O)C(c3ccccc3)N(C)C(=O)c3cnc(Nc4ccc(N5CCN(C)CC5)cc4OC)nc32)c1 (stereo not given) | 3820 nM | 14300 nM | – | – |
| 6.26 nM | 84.2 nM | 9.12 nM | 8.4 nM | 32.8 nM | 2590 nM | – | – | C=CC(=O)Nc1cccc(N2C(=O)CN(Cc3ccccc3)C(=O)c3cnc(Nc4ccc(N5CCN(C)CC5)cc4OC)nc32)c1 | 87 nM | 17500 nM | – | – |
